Experimental data reported in PubChem BioAssay AID330 (DTP/NCI, 2004).
Several values for one entry are separate records, joined by “and”; a condition that tells them apart may be missing. Identical values can stand only once. Inconclusive results and toxic doses are left out.

System: P388 leukemia ip, CD2F1 mice, survival T/C
Assay: NCI In Vivo Anticancer Drug Screen. Data for tumor model P388 Leukemia (intraperitoneal) in CD2F1 (CDF1) mice
Conditions: endpoint: median survival time, higher = longer survival
Method in brief: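 Mice carrying the transplanted tumor received test compound or vehicle. Survival was recorded in each group, and the value is the treated-group measurement divided by that of the vehicle-treated control group.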

[1] = dose: 50.0 mg/kg/injection, schedule: Q01DX009 (ip), vehicle: Klucel (hydroxypropylcellulose) (HPC)
[2] = dose: 100.0 mg/kg/injection, schedule: Q01DX009 (ip), vehicle: Klucel (hydroxypropylcellulose) (HPC)
[3] = dose: 50.0 mg/kg/injection, schedule: Q01DX005 (ip), vehicle: Klucel (hydroxypropylcellulose) (HPC)
[4] = dose: 100.0 mg/kg/injection, schedule: Q01DX005 (ip), vehicle: Klucel (hydroxypropylcellulose) (HPC)
[5] = dose: 200.0 mg/kg/injection, schedule: Q01DX005 (ip), vehicle: Klucel (hydroxypropylcellulose) (HPC)
[6] = dose: 50.0 mg/kg/injection, schedule: Q01DX005 (ip), vehicle: saline with Tween-80
[7] = dose: 100.0 mg/kg/injection, schedule: Q01DX005 (ip), vehicle: saline with Tween-80
[8] = dose: 100.0 mg/kg/injection, schedule: Q04DX003 (ip), vehicle: saline with Tween-80
[9] = dose: 200.0 mg/kg/injection, schedule: Q04DX003 (ip), vehicle: saline with Tween-80
[10] = dose: 400.0 mg/kg/injection, schedule: Q04DX003 (ip), vehicle: saline with Tween-80
[11] = dose: 50.0 mg/kg/injection, schedule: Q01DX005 (ip), vehicle: saline
[12] = dose: 100.0 mg/kg/injection, schedule: Q01DX005 (ip), vehicle: saline
[13] = dose: 200.0 mg/kg/injection, schedule: Q01DX005 (ip), vehicle: saline
[14] = dose: 100.0 mg/kg/injection, schedule: Q01DX001 (ip), vehicle: saline with Tween-80
[15] = dose: 200.0 mg/kg/injection, schedule: Q01DX001 (ip), vehicle: saline with Tween-80
[16] = dose: 12.5 mg/kg/injection, schedule: Q01DX005 (ip), vehicle: saline
[17] = dose: 50.0 mg/kg/injection, schedule: Q01DX009 (ip), vehicle: saline
[18] = dose: 100.0 mg/kg/injection, schedule: Q01DX009 (ip), vehicle: saline
[19] = dose: 200.0 mg/kg/injection, schedule: Q01DX009 (ip), vehicle: saline
[20] = dose: 50.0 mg/kg/injection, schedule: Q01DX009 (ip), vehicle: saline with Tween-80
[21] = dose: 100.0 mg/kg/injection, schedule: Q01DX009 (ip), vehicle: saline with Tween-80
[22] = dose: 200.0 mg/kg/injection, schedule: Q01DX009 (ip), vehicle: saline with Tween-80

O=[N+]([O-])c1cc([N+](=O)[O-])c(N2CC2)cc1C1=NCCO1
T/C [1]: 98 % of control | T/C [2]: 110 % of control

O=C1CCCN1CC#CCN1CCCC1
T/C (dose: 0.79 mg/kg/injection, schedule: Q01DX001 (ip), vehicle: saline): 97 % of control | T/C (dose: 0.79 mg/kg/injection, schedule: Q01DX005 (ip), vehicle: saline): 100 % of control | T/C (dose: 1.56 mg/kg/injection, schedule: Q01DX001 (ip), vehicle: saline): 103 % of control | T/C (dose: 1.56 mg/kg/injection, schedule: Q01DX005 (ip), vehicle: saline): 97 % of control | T/C (dose: 3.12 mg/kg/injection, schedule: Q01DX001 (ip), vehicle: saline): 105 % of control | T/C (dose: 3.12 mg/kg/injection, schedule: Q01DX005 (ip), vehicle: saline): 97 % of control

O=C(O)CNc1ccccc1Br
T/C [3]: 105 % of control | T/C [4]: 97 % of control | T/C [5]: 96 % of control

COC(c1ccccc1)(c1ccccc1)c1ccc2ccc3ccccc3c2c1
T/C [3]: 91 % of control | T/C [4]: 96 % of control | T/C [5]: 95 % of control

CCCCNC(=O)[C@@H]1C[C@H](OP(c2ccccc2)c2ccccc2)CN1P(c1ccccc1)c1ccccc1
T/C [6]: 100 % of control | T/C [7]: 100 % of control | T/C (dose: 200.0 mg/kg/injection, schedule: Q01DX005 (ip), vehicle: saline with Tween-80): 99 % of control

Cn1c(=O)oc2c(Br)cc(Br)cc21
T/C (dose: 50.0 mg/kg/injection, schedule: Q04DX002 (ip), vehicle: Klucel (hydroxypropylcellulose) (HPC)): 101 % of control | T/C (dose: 100.0 mg/kg/injection, schedule: Q04DX002 (ip), vehicle: Klucel (hydroxypropylcellulose) (HPC)): 104 % of control | T/C (dose: 200.0 mg/kg/injection, schedule: Q04DX002 (ip), vehicle: Klucel (hydroxypropylcellulose) (HPC)): 101 % of control

CCOc1ccn(CC(=O)c2ccc(Cl)s2)c(=O)n1
T/C [8]: 95 % of control | T/C [9]: 90 % of control | T/C [10]: 104 % of control

CC(C)C(=O)CCC(=O)O
T/C [11]: 106 % of control | T/C [12]: 97 % of control | T/C [13]: 98 % of control

COCN(Cc1ccccc1)C[Si](C)(C)C
T/C [14]: 106 % of control | T/C [15]: 99 % of control

COc1ccc2c(c1)[C@]1(C)CCN(C)[C@@H]1N2C
T/C [16]: 105 % of control | T/C (dose: 25.0 mg/kg/injection, schedule: Q01DX005 (ip), vehicle: saline): 98 % of control | T/C [11]: 105 % of control

O=c1[nH]nc(-c2ccc3c(c2)OCO3)o1
T/C (dose: 32.5 mg/kg/injection, schedule: Q01DX009 (ip), vehicle: Klucel (hydroxypropylcellulose) (HPC)): 105 % of control | T/C (dose: 65.0 mg/kg/injection, schedule: Q01DX009 (ip), vehicle: Klucel (hydroxypropylcellulose) (HPC)): 95 % of control | T/C (dose: 130.0 mg/kg/injection, schedule: Q01DX009 (ip), vehicle: Klucel (hydroxypropylcellulose) (HPC)): 95 % of control

CCCCCN(C)C12CN3CN(CN(C3)C1)C2
T/C [17]: 103 % of control | T/C [18]: 103 % of control | T/C [19]: 99 % of control

C[C@]12C=CC(=O)C=C1CC[C@H]1[C@@H]3CCC(=O)O[C@@]3(C)CC(=O)[C@@]12F
T/C [8]: 91 % of control | T/C [9]: 95 % of control | T/C [10]: 100 % of control

CC1(C)CCC23CCC4(C)C(CCC5C6(C)CCC(O)C(C)(C)C6CCC54C)C2C1OC3 (centres undefined)
T/C [1]: 87 % of control | T/C [2]: 87 % of control | T/C (dose: 200.0 mg/kg/injection, schedule: Q01DX009 (ip), vehicle: Klucel (hydroxypropylcellulose) (HPC)): 89 % of control

C/C=C/C=C\C=C/C(O)CC(OP(=O)(O)O)C(C)(O)/C=C/C1CC=CC(=O)O1 (centres undefined)
T/C (dose: 0.75 mg/kg/injection, schedule: Q01DX005 (ip), vehicle: water): 116 % of control | T/C (dose: 1.5 mg/kg/injection, schedule: Q01DX005 (ip), vehicle: water): 119 % of control | T/C (dose: 6.25 mg/kg/injection, schedule: Q01DX005 (ip), vehicle: water): 183 % of control

Cc1cc2nc(CN(CCO)CCO)[nH]c2cc1C
T/C [11]: 100 % of control | T/C [12]: 98 % of control | T/C [13]: 98 % of control

O=C(NC(CC(NC(=O)OCc1ccccc1)NC(=O)OCc1ccccc1)NC(=O)OCc1ccccc1)OCc1ccccc1
T/C (dose: 60.0 mg/kg/injection, schedule: Q01DX005 (ip), vehicle: saline with Tween-80): 89 % of control | T/C (dose: 120.0 mg/kg/injection, schedule: Q01DX005 (ip), vehicle: saline with Tween-80): 91 % of control | T/C (dose: 240.0 mg/kg/injection, schedule: Q01DX005 (ip), vehicle: saline with Tween-80): 103 % of control

O=C1Cc2cc3c(cc2C=C2CCCN12)OCO3
T/C (dose: 6.25 mg/kg/injection, schedule: Q01DX009 (ip), vehicle: water): 100 % of control | T/C (dose: 12.5 mg/kg/injection, schedule: Q01DX009 (ip), vehicle: water): 100 % of control | T/C (dose: 25.0 mg/kg/injection, schedule: Q01DX009 (ip), vehicle: water): 103 % of control | T/C (dose: 50.0 mg/kg/injection, schedule: Q01DX009 (ip), vehicle: water): 106 % of control | T/C (dose: 100.0 mg/kg/injection, schedule: Q01DX009 (ip), vehicle: water): 100 % of control

Cn1nc(-c2ccc(Cl)c(Cl)c2)[n+]([O-])c2c(=O)n(C)c(=O)nc1-2
T/C (dose: 6.25 mg/kg/injection, schedule: Q01DX009 (ip), vehicle: saline with Tween-80): 120 % of control | T/C (dose: 12.5 mg/kg/injection, schedule: Q01DX009 (ip), vehicle: saline with Tween-80): 110 % of control and 115 % of control

C=CC(=O)N/C(N)=N\C(N)=O
T/C (dose: 3.0 mg/kg/injection, schedule: Q01DX005 (ip), vehicle: saline): 110 % of control | T/C (dose: 6.0 mg/kg/injection, schedule: Q01DX005 (ip), vehicle: saline): 112 % of control | T/C (dose: 12.0 mg/kg/injection, schedule: Q01DX005 (ip), vehicle: saline): 113 % of control | T/C [16]: 113 % of control

O=P(c1ccccc1)(c1ccccc1)c1ccccc1.[Cl][Sn]([c]1ccccc1)([c]1ccccc1)[c]1ccccc1
T/C (dose: 100.0 mg/kg/injection, schedule: Q04DX003 (ip), vehicle: saline): 100 % of control | T/C (dose: 200.0 mg/kg/injection, schedule: Q04DX003 (ip), vehicle: saline): 106 % of control | T/C (dose: 400.0 mg/kg/injection, schedule: Q04DX003 (ip), vehicle: saline): 118 % of control

CN(C(=O)C1CC1)c1ccccc1
T/C [20]: 105 % of control | T/C [21]: 107 % of control

Clc1cccc2nc(-c3ccccn3)n(CCc3ccccn3)c12
T/C [3]: 96 % of control | T/C [4]: 100 % of control | T/C [5]: 100 % of control

Cc1cc(OC(=O)Nc2c(Cl)cccc2Cl)c(Cl)c(C)c1Cl
T/C [20]: 112 % of control | T/C [21]: 109 % of control | T/C [22]: 105 % of control

CC(Cl)C(=O)NN=C(c1ccccc1)c1ccccc1 (centres undefined)
T/C (dose: 42.0 mg/kg/injection, schedule: Q01DX009 (ip), vehicle: saline): 94 % of control | T/C (dose: 84.0 mg/kg/injection, schedule: Q01DX009 (ip), vehicle: saline): 90 % of control | T/C (dose: 168.0 mg/kg/injection, schedule: Q01DX009 (ip), vehicle: saline): 105 % of control

CCCCCCCCCCCOCC(=O)OC
T/C [20]: 99 % of control | T/C [21]: 101 % of control | T/C [22]: 100 % of control

COc1ccc(/C(=C/c2c(C(=O)O)oc3ccccc23)c2ccccc2)cc1
T/C [14]: 97 % of control | T/C [15]: 99 % of control

O=c1[nH]c(=S)ccn1C1OC(CO)C(O)C1O (centres undefined)
T/C [17]: 97 % of control | T/C [18]: 101 % of control | T/C [19]: 93 % of control

CC(C)CC(NC(=O)OC(C)(C)C)C(=O)ON1C(=O)CCC1=O (centres undefined)
T/C [6]: 111 % of control | T/C [7]: 111 % of control

CCOC(OCC)C(C)(C)CNC
T/C (dose: 100.0 mg/kg/injection, schedule: Q01DX001 (ip), vehicle: saline sonified): 109 % of control | T/C (dose: 200.0 mg/kg/injection, schedule: Q01DX001 (ip), vehicle: saline sonified): 113 % of control
